In patent publication US20260356851A1, “TRICYCLIC COMPOUNDS AND USES THEREOF” (HUTCHMED LIMITED, priority 2023, published 2026) one finds IC50 data, which are given here for 34 molecules.

Assay type in all cases: cell-based
The target of test [1] is T1, pERK1/2 (Thr202/Tyr204), NCI-1H358 (KRAS G12C) (Homo sapiens, UniProt P01116, G12C).
T1 construct: pERK1/2 HTRF read-out
Briefly: Assay of intracellular pERK1/2 (Thr202/Tyr204) phosphorylation in NCI-H358 cells (KRAS G12C). The settings on record: pERK1/2, 2 days, read-out: NCI-H358 (KRAS G12C) IC50. The method in brief:
(§1)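 HTRF detection of Thr202/Tyr204-phosphorylated ERK1/2 (665/615 nm ratio) in lysates from cells treated 2 days with serially 3-fold diluted compound.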

Test [2] addresses T2, pERK1/2 (Thr202/Tyr204), PANC-1 (KRAS G121D) (Homo sapiens, UniProt P01116, G12D).
T2 construct: pERK1/2 HTRF read-out
Briefly: Assay of intracellular pERK1/2 (Thr202/Tyr204) phosphorylation in PANC-1 cells (KRAS G12D). Particulars: pERK1/2, 2 days, read-out: PANC-1 (KRAS G12D) IC50. In outline:
as §1

For test [3], the target named is T3, pERK1/2 (Thr202/Tyr204), NCI-1H441 (KRAS G12V) (Homo sapiens, UniProt P01116, G12V).
T3 construct: pERK1/2 HTRF read-out
Briefly: Assay of intracellular pERK1/2 (Thr202/Tyr204) phosphorylation in NCI-H441 cells (KRAS G12V). Particulars: pERK1/2, 2 days, read-out: NCI-H441 (KRAS G12V) IC50. The method in brief:
as §1

T3 sequence (P01116 1-188 isoform P01116-2 G12V): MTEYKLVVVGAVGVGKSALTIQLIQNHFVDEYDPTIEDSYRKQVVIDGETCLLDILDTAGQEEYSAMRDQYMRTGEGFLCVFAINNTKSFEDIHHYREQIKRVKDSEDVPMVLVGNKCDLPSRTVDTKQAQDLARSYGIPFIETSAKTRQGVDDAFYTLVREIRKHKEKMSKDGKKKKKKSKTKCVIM
T1 sequence (P01116 1-188 isoform P01116-2 G12C): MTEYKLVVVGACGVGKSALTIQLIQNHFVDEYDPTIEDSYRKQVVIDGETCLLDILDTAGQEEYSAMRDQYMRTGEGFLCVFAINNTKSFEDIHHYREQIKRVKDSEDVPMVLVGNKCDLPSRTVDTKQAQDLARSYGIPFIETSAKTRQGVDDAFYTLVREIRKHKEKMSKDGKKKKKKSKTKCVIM
T2 sequence (P01116 1-188 isoform P01116-2 G12D): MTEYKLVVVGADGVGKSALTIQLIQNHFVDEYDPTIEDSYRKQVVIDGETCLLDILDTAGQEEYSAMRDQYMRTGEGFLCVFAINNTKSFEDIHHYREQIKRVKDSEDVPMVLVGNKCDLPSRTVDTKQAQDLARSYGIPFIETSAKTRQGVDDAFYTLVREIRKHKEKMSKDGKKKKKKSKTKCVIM

Take `CC(c1cccnc1N)N1CCOc2nc(-c3nc(N)cc4ccccc34)c(F)c3nc(OC[C@@H]4CCCN4C)nc1c23` (stereo partly drawn) [Compound 28, 1-(10-(1-(2-aminopyridin-3-yl)ethyl)-4-fluoro-2-(((S)-1-methylpyrrolidin-2-yl)methoxy)-9,10-dihydro-8H-7-oxa-1,3,6,10-tetraazacyclohepta[de]naphthalen-5-yl)isoquinolin-3-amine]: the IC50 in test [1] was 448 nM; in test [2], over 1000 nM; in test [3], over 1000 nM.

As to `CSc1nc2c3c(nc(-c4cc(O)cc5ccc(F)c(F)c45)c(F)c3n1)OCCN2C(C)c1cccnc1N` (stereo not drawn) [Compound 33], the concentration for half-maximal inhibition (IC50) in test [1] was 193 nM; in test [2], over 1000 nM; in test [3], 121 nM.

In the case of `CC(c1cccnc1N)N1CCOc2nc(-c3cc(N)ccc3C(F)(F)F)c(F)c3nc(OC[C@@H]4CCCN4C)nc1c23` (stereo partly drawn) [Compound 36], the half-inhibitory concentration (IC50) came to 6 nM in test [1], 286 nM in test [2] and 25 nM in test [3].

As for `CC(c1cccnc1N)N1CCOc2nc(-c3cc(N)ccc3C(F)(F)F)c(F)c3nc(OC[C@@H]4CC(F)(F)CN4C)nc1c23` (stereo partly drawn) [Compound 37], the values for the IC50 in test [1], in test [2] and in test [3] were 11 nM, 851 nM and 26 nM, respectively.

For the molecule `CC(c1cccnc1N)N1CCOc2nc(-c3c(C(F)(F)F)ccc4[nH]ncc34)c(F)c3nc(OC[C@@H]4CC(F)(F)CN4C)nc1c23` (stereo partly drawn) [Compound 40], the IC50 in test [1] is 18 nM; in test [2], 934 nM; in test [3], 31 nM.

`CC(c1cccnc1N)N1CCOc2nc(-c3cc(O)cc(F)c3C3CC3)c(F)c3nc(OC[C@@H]4CC(F)(F)CN4C)nc1c23` (stereo partly drawn) [Compound 45]: the concentration for half-maximal inhibition (IC50) in test [1] was 38 nM; in test [2] it was over 1000 nM; in test [3], 53 nM.

Take `CC(c1cccnc1N)N1CCOc2nc(-c3cc(O)cc4ccc(F)c(F)c34)c(F)c3nc(OC[C@@H]4CC(F)(F)CN4C)nc1c23` (stereo partly drawn) [Compound 46]: the 50% inhibitory concentration (IC50) in test [1] was determined as 4 nM; in test [2], 287 nM; in test [3] it was 5 nM.

On to `COc1ccc(C(F)(F)F)cc1-c1nc2c3c(nc(OC[C@@]45CCCN4C[C@H](F)C5)nc3c1F)N(C(C)c1cccnc1N)CCO2` (stereo partly drawn) [Compound 47], for which the IC50 in test [1] is over 1000 nM; in test [2], 347 nM; in test [3] it was over 1000 nM.

Turning to `Cc1cc(N)cc(-c2nc3c4c(nc(OC[C@@]56CCCN5C[C@H](F)C6)nc4c2F)N(C(C)c2cccnc2N)CCO3)c1C(F)(F)F` (stereo partly drawn) [Compound 59], the half-inhibitory concentration (IC50) in test [1] worked out at 0.2 nM; in test [2], 2 nM; in test [3], 0.7 nM.

Regarding `C#Cc1ccc2[nH]ncc2c1-c1nc2c3c(nc(OC[C@@]45CCCN4C[C@H](F)C5)nc3c1F)N(C(C)c1cccnc1N)CCO2` (stereo partly drawn) [Compound 60], the IC50 was 518 nM in test [1], over 1000 nM in test [2] and 806 nM in test [3].

For the molecule `CC(c1cccnc1N)N1CCOc2nc(-c3cc(N)cc(Cl)c3C(F)(F)F)c(F)c3nc(OC[C@@]45CCCN4C[C@H](F)C5)nc1c23` (stereo partly drawn) [Compound 63], the IC50 in test [1] stood at 0.4 nM; in test [2], 2 nM; in test [3], 0.5 nM.

As for `CC(c1cccnc1N)N1CCOc2nc(-c3cc(N)cc(Cl)c3C(F)(F)F)c(F)c3nc(OC[C@@H]4CCCN4C)nc1c23` (stereo partly drawn) [Compound 64], the half-inhibitory concentration (IC50) turned out to be 0.6 nM in test [1], 23 nM in test [2] and 2 nM in test [3].

For `Cc1cc(N)cc(-c2nc3c4c(nc(OC[C@@H]5CCCN5C)nc4c2F)N(C(C)c2cccnc2N)CCO3)c1C(F)(F)F` (stereo partly drawn) [Compound 65], the results for the IC50 in test [1], in test [2] and in test [3] were 1 nM, 26 nM and 2 nM, respectively.

Turning to `CC(c1cccnc1N)N1CCOc2nc(-c3cc(N)cc(Cl)c3C3CC3)c(F)c3nc(OC[C@@]45CCCN4C[C@H](F)C5)nc1c23` (stereo partly drawn) [Compound 66], the half-inhibitory concentration (IC50) came to 0.2 nM in test [1], 3 nM in test [2] and 0.4 nM in test [3].

On to `CC(c1cccnc1N)N1CCOc2nc(-c3cc(N)cc(Cl)c3C3CC3)c(F)c3nc(OC[C@@H]4CCCN4C)nc1c23` (stereo partly drawn) [Compound 67], for which the figures for the IC50 in test [1], in test [2] and in test [3] were 5 nM, 81 nM and 8 nM, respectively.

For the molecule `CC(c1cccnc1N)N1CCOc2nc(-c3cc(N)cc(Cl)c3C3CC3)c(F)c3nc(OCC4(C#N)CC4)nc1c23` (stereo not drawn) [Compound 68], the 50% inhibitory concentration (IC50) in test [1] was 264 nM; in test [2] it was over 1000 nM; in test [3], 506 nM.

For `Cc1cc(N)cc(-c2nc3c4c(nc(OCC5(CN(C)C)CC5)nc4c2F)N(C(C)c2cccnc2N)CCO3)c1C(F)(F)F` (stereo not drawn) [Compound 69], the IC50 came out at 3 nM in test [1], 95 nM in test [2] and 10 nM in test [3].

Take `Cc1cc(N)cc(-c2nc3c4c(nc(OC[C@@H]5CC(F)(F)CN5C)nc4c2F)N(C(C)c2cccnc2N)CCO3)c1C(F)(F)F` (stereo partly drawn) [Compound 70]: the results for the IC50 in test [1], in test [2] and in test [3] were 2 nM, over 100 nM and 2 nM, respectively.

`Cc1cc(N)cc(-c2nc3c4c(nc(OC[C@@H]5C[C@@H](F)CN5C)nc4c2F)N(C(C)c2cccnc2N)CCO3)c1C(F)(F)F` (stereo partly drawn) [Compound 73]: the results for the 50% inhibitory concentration (IC50) in test [1], in test [2] and in test [3] were 0.9 nM, 31 nM and 2 nM, respectively.

`CC(c1cccnc1N)N1CCOc2nc(-c3cc(N)cc(F)c3C(F)(F)F)c(F)c3nc(OC[C@@]45CCCN4C[C@H](F)C5)nc1c23` (stereo partly drawn) [Compound 82]: the 50% inhibitory concentration (IC50) in test [1] was determined as 0.8 nM; in test [2], 15 nM; in test [3] it was 0.8 nM.

For the molecule `Cc1nc(N)cc(-c2nc3c4c(nc(OC[C@@]56CCCN5C[C@H](F)C6)nc4c2F)N(C(C)c2cccnc2N)CCO3)c1C(F)(F)F` (stereo partly drawn) [Compound 83], the figures for the 50% inhibitory concentration (IC50) in test [1], in test [2] and in test [3] were 0.6 nM, 29 nM and 3 nM, respectively.

On to `Cc1cc(N)cc(-c2nc3c4c(nc(OCC56CCCN5CCC6)nc4c2F)N(C(C)c2cccnc2N)CCO3)c1C(F)(F)F` (stereo not drawn) [Compound 87], for which the IC50 in test [1] stood at 3 nM; in test [2] it was 36 nM; in test [3], 6 nM.

`C#Cc1c(Cl)cc(N)cc1-c1nc2c3c(nc(OC[C@@H]4CCCN4C)nc3c1F)N(C(C)c1cccnc1N)CCO2` (stereo partly drawn) [Compound 94]: the values for the half-maximal inhibitory concentration (IC50) in test [1], in test [2] and in test [3] were 46 nM, over 100 nM and 100 nM, respectively.

Turning to `Cc1nc(N)cc(-c2nc3c4c(nc(OC[C@@H]5CCCN5C)nc4c2F)N(C(C)c2cccnc2N)CCO3)c1C(F)(F)F` (stereo partly drawn) [Compound 97], the 50% inhibitory concentration (IC50) in test [1] was 16 nM; in test [2] it was over 100 nM; in test [3], 36 nM.

On to `[2H]C([2H])(Oc1nc2c3c(nc(-c4cc(N)c(F)c(C)c4C(F)(F)F)c(F)c3n1)OCCN2C(C)c1cccnc1N)[C@@H]1CCC([2H])([2H])N1C([2H])([2H])[2H]` (stereo partly drawn) [Compound 104], for which the values for the 50% inhibitory concentration (IC50) in test [1], in test [2] and in test [3] were 2 nM, 24 nM and 3 nM, respectively.

As for `[2H]C1([2H])CC[C@@]2(C([2H])([2H])Oc3nc4c5c(nc(-c6cc(N)cc(C)c6C(F)(F)F)c(F)c5n3)OCCN4C(C)c3cccnc3N)C[C@@H](F)CN12` (stereo partly drawn) [Compound 105], the concentration for half-maximal inhibition (IC50) in test [1] came out at 0.4 nM; in test [2], 2 nM; in test [3] it was 0.6 nM.

Turning to `Cc1cc(N)cc(-c2nc3c4c(nc(OC[C@@H]5CCCN5CCO)nc4c2F)N(C(C)c2cccnc2N)CCO3)c1C(F)(F)F` (stereo partly drawn) [Compound 108], the IC50 in test [1] is 12 nM; in test [2], over 100 nM; in test [3], 26 nM.

Consider `[2H]C([2H])([2H])N1CCC[C@H]1COc1nc2c3c(nc(-c4cc(N)cc(Cl)c4C(F)(F)F)c(F)c3n1)OCCN2C(C)c1cccnc1N` (stereo partly drawn) [Compound 111], for which the figures for the IC50 in test [1], in test [2] and in test [3] were 1 nM, 21 nM and 1 nM, respectively.

For the molecule `[2H]C([2H])(Oc1nc2c3c(nc(-c4cc(N)cc(Cl)c4C(F)(F)F)c(F)c3n1)OCCN2C(C)c1cccnc1N)[C@@H]1CCC([2H])([2H])N1C([2H])([2H])[2H]` (stereo partly drawn) [Compound 112], the values for the half-inhibitory concentration (IC50) in test [1], in test [2] and in test [3] were 1 nM, 34 nM and 2 nM, respectively.

For the molecule `[2H]C1([2H])CC[C@@]2(C([2H])([2H])Oc3nc4c5c(nc(-c6cc(N)cc(Cl)c6C(F)(F)F)c(F)c5n3)OCCN4C(C)c3cccnc3N)C[C@@H](F)CN12` (stereo partly drawn) [Compound 113], the IC50 in test [1] was found to be 0.7 nM; in test [2] it was 2 nM; in test [3] it was 0.8 nM.

For the molecule `CCN1CCC[C@H]1COc1nc2c3c(nc(-c4cc(N)cc(C)c4C(F)(F)F)c(F)c3n1)OCCN2C(C)c1cccnc1N` (stereo partly drawn) [Compound 114], the half-inhibitory concentration (IC50) in test [1] came to 0.6 nM; in test [2], 19 nM; in test [3] it was 0.9 nM.

Regarding `[2H]C1([2H])CC[C@@]2(C([2H])([2H])Oc3nc4c5c(nc(-c6cc(N)c(F)c(C)c6C(F)(F)F)c(F)c5n3)OCCN4C(C)c3cccnc3N)C[C@@H](F)CN12` (stereo partly drawn) [Compound 119], the results for the IC50 in test [1], in test [2] and in test [3] were 0.3 nM, 2 nM and 0.4 nM, respectively.

Consider `Cc1c(F)c(N)cc(-c2nc3c4c(nc(OC[C@@]56CCCN5C[C@H](F)C6)nc4c2F)N(C(C)c2cccnc2N)CCO3)c1C(F)(F)F` (stereo partly drawn) [Compound 120], for which the values for the IC50 in test [1], in test [2] and in test [3] were 0.3 nM, 1 nM and 0.4 nM, respectively.

In the case of `Cc1cc(N)cc(-c2nc3c4c(nc(OC[C@@]56CCCN5C[C@H](F)C6)nc4c2F)N(C(C)c2cccnn2)CCO3)c1C(F)(F)F` (stereo partly drawn) [Compound 121], the IC50 in test [1] is over 100 nM; in test [2] it was over 100 nM; in test [3], 98 nM.

As a reminder, the IC50 is the midpoint of a concentration-inhibition curve.
